Assay results published in publication PMC9061853, “Luminescent bis(benzo[d]thiazolyl)quinoxaline: facile synthesis, nucleic acid and protein BSA interaction, live-cell imaging, biopharmaceutical research and cancer theranostic application” (RSC Advances, 2019).

Tests used:
[1] = Metabolic stability in mouse liver microsomes; type: in vitro ADME; conditions: for % Metabolism in 30 min: 0.5 μM, 0.5 mg ml^−1 protein, NADPH, 37 °C; for half-life at 0.5 μM: mouse, liver microsomes
Protocol: The in vitro metabolic rate of 7g was determined in liver microsomes and the intrinsic clearance (CLintr) was estimated. The study was conducted at 0.5 μM substrate concentration and microsomal protein concentration of 0.5 mg ml^−1. Metabolic stability study in the presence of microsomes and cofactor NADPH was performed at 37 °C, 60 rpm for 30 min time duration. NADPH free control incubation was performed simultaneously for 30 min to understand if there are any non-enzymatic metabolism related issues. […] Intrinsic clearance as given in Table 6, was calculated using eqn (8). ^†

HeLa cells = test: Live cell imaging / cellular uptake; type: cell-based, human; conditions: 50 μM in buffer, 4 h incubation, fluorescence microscopy
Protocol: Live cell imaging was performed in HeLa cell line. Compound 7e in 50 μM concentration in the buffer, were incubated with HeLa cells for 4 h. […] Significant potency, selectivity and cellular imaging property of compound 7e, mark it as a theranostic agent.
Fig. 2 Fluorescence and bright-field images of live cells: (a) fluorescent image of HeLa cell with compound 7e (50 μM in PBS buffer); incubation time 2 hours (b) bright-field image of HeLa cell with compound 7e (50 μM in PBS buffer); incubation time 2 hours. Scale bar 100 μm.
Then the 96 well plate was placed on the shaker for 10 min and subsequently the absorbance was recorded by the ELISA reader at λ = 490 nm. […] The data were expressed as the growth inhibition percentage calculated according to the equation: % growth inhibition = 100 − [(AD × 100)/AB], where AD is the absorbance measured for sample and AB is the absorbance measured for blank wells (cells with a […]
After incubating for 4 h at 37 °C, all the cells were washed with PBS buffer (pH 7.4). Then, the fluorescence images were recorded with an Olympus Fluorescence microscope with 480- […]
Interaction of complex (7e ) with DNA was recorded using UV-Visible absorption spectroscopy and ethidium bromide displacement assay by fluorescence spectroscopy. […]
The CT-DNA concentration in buffer were calculated by using the UV absorbance value at 260 nm and from the known molar […]

SMILES	CLint ([1]; MLM set 1) [μl per min per mg protein]	% Metabolism in 30 min ([1]; MLM set 1) [%]	CLint ([1]; MLM set 2) [μl per min per mg protein]	% Metabolism in 30 min ([1]; MLM set 2) [%]	half-life at 0.5 μM ([1]; MLM set 1) [h]	half-life at 0.5 μM ([1]; MLM set 2) [h]	fluorescence of drug-treated live cells (cellular uptake) (HeLa cells)
COc1ccc2nc(COc3ccccc3-c3nc4ccccc4s3)c(COc3ccccc3-c3nc4ccccc4s3)nc2c1 [Compound 7g, 2,2'-((((6-methoxyquinoxaline-2,3-diyl)bis(methylene))bis(oxy))bis(2,1-phenylene))bis(benzo[d]thiazole)]	13	12	28	37	1.83	0.818	
Clc1cc2nc(COc3ccccc3-c3nc4ccccc4s3)c(COc3ccccc3-c3nc4ccccc4s3)nc2cc1Cl [Compound 7e]							significant red fluorescence
